Like-named read-outs stand apart in the source and are kept apart here.
How the values were obtained:
Format in all cases: cell-based
SF126 [1] = experiment: Apoptosis assay (Cellomics, nucleus condensation); settings: Homo sapiens, SF-126, Table III, read-out: Apoptosis induction in SF126
Summary of the method: (§1)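 Cells seeded at 5000 per well were stained live with Hoechst 33342, and nuclear condensation was quantified per nucleus by automated fluorescence imaging alongside cell counts. Compound was tested at 12.5, 6.25, 3.125, 1.56, 0.78 and 0.39 μM against a DMSO control, with reads at 24 h and 48 h.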

Hs578T = experiment: Apoptosis assay (Cellomics, nucleus condensation); settings: Homo sapiens, Hs-578T, Table III, read-out: Apoptosis induction in Hs578T
Summary of the method: as §1

U118 [2] = experiment: Apoptosis assay (Cellomics, nucleus condensation); settings: Table III, read-out: Apoptosis induction in U118
Summary of the method: as §1

tumor cell = experiment: Matrigel outgrowth assay/branching assay (Table Va)
Summary of the method: (§2)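 Step one: Matrigel (3 mg/ml) is set for 1 h at 37° C. Step two: 5000 cells per well go on in medium with compound (0.78–3.125 μM) or DMSO. Step three: images at 48, 72 and 96 h are scored for complete loss of branching.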

cells = experiment: Boyden chamber migration assay (Table VI); settings: Hs578T cells, 16 h migration
Summary of the method: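 20000 cells seeded in the upper compartment in 0% FCS plus 0.1% BSA and left 16 h to migrate through […] membrane toward 10% FCS medium below. Non-migrated cells swabbed off; cells on the filter underside fixed and counted.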

C8161 = experiment: Cell vitality assay (ATP assay, CellTiter-Glo); settings: Homo sapiens; C8161, 72 h; Table IIa; read-out: IC50 ATP-Assay after 72 h C8161
Summary of the method: (§3)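 Steps: seed 1000 cells per well; add compound (0.195–12.5 μM, 7 points) or DMSO; incubate 72 h; equilibrate to room temperature ~30 min; add reagent, shake 2 min, stand 10 min; read luminescence. IC50 relative to DMSO-control ATP.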

U138 = experiment: Cell vitality assay (ATP assay, CellTiter-Glo); settings: U138, 72 h; Table IIa; read-out: IC50 ATP-Assay after 72 h U138
Summary of the method: as §3

MDA-MB231 = experiment: Cell vitality assay (ATP assay, CellTiter-Glo); settings: Homo sapiens, MDA-MB-231; MDA-MB231, 72 h; Table IIa; read-out: IC50 ATP-Assay after 72 h MDA-MB231
Summary of the method: as §3

SF763 = experiment: Cell vitality assay (ATP assay, CellTiter-Glo); settings: SF763, 72 h; Table IIa; read-out: IC50 ATP-Assay after 72 h SF763
Summary of the method: as §3

A172 [3] = experiment: Cell vitality assay (ATP assay, CellTiter-Glo); settings: Homo sapiens, A 172; A172, 72 h; Table IIa; read-out: IC50 ATP-Assay after 72 h A172
Summary of the method: as §3

A172 [4] = experiment: Matrigel outgrowth assay/branching assay; settings: Homo sapiens, A 172, Table Vb, read-out: Total branching inhibition in Matrigel A172
Summary of the method: as §2

SF126 [5] = experiment: Matrigel outgrowth assay/branching assay; settings: Homo sapiens, SF-126, Table Vb, read-out: Total branching inhibition in Matrigel SF126
Summary of the method: as §2

U118 [6] = experiment: Matrigel outgrowth assay/branching assay; settings: Table Vb, read-out: Total branching inhibition in Matrigel U118
Summary of the method: as §2

[7] = Homo sapiens, C8161 cells, read-out: Total branching inhibition in Matrigel C8161
[8] = Homo sapiens, Hs-578T, Hs578T cells, read-out: Total branching inhibition in Matrigel Hs578T
[9] = U118 cells, read-out: Total branching inhibition in Matrigel U118
[10] = U138 cells, read-out: Total branching inhibition in Matrigel U138

Row | Compound | IC50 (SF126 [1]) [µM] | IC50 (Hs578T) [µM] | IC50 (U118 [2]) [µM] | IC50 (tumor cell; [7]) [µM] | IC50 (tumor cell; [8]) [µM] | IC50 (tumor cell; [9]) [µM] | IC50 (tumor cell; [10]) [µM] | IC50 (cells; Homo sapiens, Hs-578T, 16 h) [µM] | IC50 (MDA-MB231) [µM] | IC50 (cells) [µM] | IC50 (C8161) [µM] | IC50 (U138) [µM] | IC50 (SF763) [µM] | IC50 (A172 [3]) [µM] | IC100 (A172 [4]) [µM] | IC100 (SF126 [5]) [µM] | IC100 (U118 [6]) [µM]
1 | COc1cc2c(Oc3ccc(NS(=O)(=O)c4cccc(C)c4)cc3F)ccnc2cc1OCCCN1CCCC(C)C1 (stereo not drawn) [Example 70, N-(3-Fluoro-4-{6-methoxy-7-[3-(3-methyl-piperidin-1-yl)-propoxy]-quinolin-4-yloxy}-phenyl)-3-methyl-benzenesulfonamide] | ≤ 12.5 | ≤ 12.5 | ≤ 12.5 | ≤ 5 | ≤ 5 | ≤ 5 | ≤ 5 | ≤ 5 | 12.5 to 50 |  | 12.5 to 50 | ≤ 12.5 | 12.5 to 50 |  |  |  | 
2 | COc1cc2c(Oc3ccc(NS(=O)(=O)c4ccc(C)c(F)c4)cc3F)ccnc2cc1OCCCN1CCCC(C)C1 (stereo not drawn) [Example 56, 3-Fluoro-N-(3-fluoro-4-{6-methoxy-7-[3-(3-methyl-piperidin-1-yl)-propoxy]-quinolin-4-yloxy}-phenyl)-4-methyl-benzenesulfonamide] | ≤ 12.5 | ≤ 12.5 | ≤ 12.5 | ≤ 5 | 5 to 50 | ≤ 5 | 5 to 50 | ≤ 5 | 12.5 to 50 |  | ≤ 12.5 | ≤ 12.5 | ≤ 12.5 |  |  |  | 
3 | COc1cc2c(Oc3ccc(NS(=O)(=O)c4ccccc4C(F)(F)F)cc3F)ccnc2cc1OCC(=O)N(C)C [Example 93, 2-{4-[2-Fluoro-4-(2-trifluoromethyl-benzenesulfonylamino)-phenoxy]-6-methoxy-quinolin-7-yloxy}-N,N-dimethyl-acetamide] | ≤ 12.5 | ≤ 12.5 | ≤ 12.5 | ≤ 5 | ≤ 5 | ≤ 5 | 5 to 50 | 5 to 50 | 12.5 to 50 | ≤ 5 | ≤ 12.5 | 12.5 to 50 | 12.5 to 50 |  |  |  | 
4 | COc1cc2c(Oc3ccc(NS(=O)(=O)c4cccc(C#N)c4)cc3F)ccnc2cc1OCCCN1CCCC(C)C1 (stereo not drawn) [Example 41, 3-Cyano-N-(3-fluoro-4-{6-methoxy-7-[3-(3-methyl-piperidin-1-yl)-propoxy]-quinolin-4-yloxy}-phenyl)-benzenesulfonamide] | ≤ 12.5 | ≤ 12.5 | ≤ 12.5 | ≤ 5 | ≤ 5 | ≤ 5 | 5 to 50 | ≤ 5 | ≤ 12.5 |  | ≤ 12.5 | ≤ 12.5 | ≤ 12.5 |  |  |  | 
5 | COc1cc2c(Oc3ccc(NS(=O)(=O)c4ccc(F)c(C#N)c4)cc3F)ccnc2cc1OCCCN1CCCC(C)C1 (stereo not drawn) [Example 72, 3-Cyano-4-fluoro-N-(3-fluoro-4-{6-methoxy-7-[3-(3-methyl-piperidin-1-yl)-propoxy]-quinolin-4-yloxy}-phenyl)-benzenesulfonamide] | 12.5 to 50 | ≤ 12.5 | ≤ 12.5 | ≤ 5 | ≤ 5 | ≤ 5 | ≤ 5 | ≤ 5 | 12.5 to 50 |  | 12.5 to 50 | 12.5 to 50 | 12.5 to 50 |  |  |  | 
6 | COc1cc2c(Oc3ccc(NS(=O)(=O)c4cc(C)ccc4F)cc3F)ccnc2cc1OCCCN1CCCC(C)C1 (stereo not drawn) [Example 55] | ≤ 12.5 | ≤ 12.5 | 12.5 to 50 | ≤ 5 | ≤ 5 | ≤ 5 | 5 to 50 | ≤ 5 | ≤ 12.5 |  | ≤ 12.5 | 12.5 to 50 | 12.5 to 50 |  |  |  | 
7 | COc1cc2c(Oc3ccc(NS(=O)(=O)c4cccc(-c5ccccc5)c4)cc3F)ccnc2cc1OCCCN1CCCCC1 [Example 8, Biphenyl-3-sulfonic acid {3-fluoro-4-[6-methoxy-7-(3-piperidin-1-yl-propoxy)-quinolin-4-loxy]-phenyl}-amide] | ≤ 12.5 | ≤ 12.5 | ≤ 12.5 | ≤ 5 | ≤ 5 | ≤ 5 | ≤ 5 | ≤ 5 |  |  | ≤ 12.5 | ≤ 12.5 | ≤ 12.5 | ≤ 12.5 | ≤ 12.5 | ≤ 12.5 | ≤ 12.5
8 | COc1cc2c(Oc3ccc(NS(=O)(=O)c4cccc(Oc5ccccc5)c4)cc3F)ccnc2cc1OCCCN1CCCC(C)C1 (stereo not drawn) [Example 59, N-(3-Fluoro-4-{6-methoxy-7-[3-(3-methyl-piperidin-1-yl)-propoxy]-quinolin-4-yloxy}-phenyl)-3-phenoxy-benzenesulfonamide] | ≤ 12.5 | ≤ 12.5 | ≤ 12.5 | ≤ 5 | ≤ 5 | 5 to 50 | ≤ 5 | ≤ 5 | ≤ 12.5 |  | ≤ 12.5 | ≤ 12.5 | ≤ 12.5 |  |  |  | 

Second part, led by results:

Row | IC50 (SF126 [1]) [µM] | IC50 (Hs578T) [µM] | IC50 (U118 [2]) [µM] | IC50 (tumor cell; [7]) [µM] | IC50 (tumor cell; [8]) [µM] | IC50 (tumor cell; [9]) [µM] | IC50 (tumor cell; [10]) [µM] | IC50 (cells; Homo sapiens, Hs-578T, 16 h) [µM] | IC50 (MDA-MB231) [µM] | IC50 (cells) [µM] | Compound | IC50 (C8161) [µM] | IC50 (U138) [µM] | IC50 (SF763) [µM] | IC50 (A172 [3]) [µM] | IC100 (A172 [4]) [µM] | IC100 (SF126 [5]) [µM] | IC100 (U118 [6]) [µM]
9 | ≤ 12.5 | ≤ 12.5 | ≤ 12.5 | ≤ 5 | ≤ 5 | ≤ 5 | 5 to 50 | ≤ 5 | ≤ 12.5 |  | COc1cc2c(Oc3ccc(NS(=O)(=O)c4ccccc4OC(F)(F)F)cc3F)ccnc2cc1OCCCN1CCN(C)CC1 [Example 25, N-(3-Fluoro-4-{6-methoxy-7-[3-(4-methyl-piperazin-1-yl)-propoxy]-quinolin-4-yloxy}-phenyl)-2-trifluoromethoxy-benzenesulfonamide] | ≤ 12.5 | ≤ 12.5 | ≤ 12.5 |  |  |  | 
10 | ≤ 12.5 | ≤ 12.5 |  | ≤ 5 | ≤ 5 | ≤ 5 | 5 to 50 | ≤ 5 | ≤ 12.5 |  | COc1cc2c(Oc3ccc(NS(=O)(=O)c4ccccc4Cl)cc3F)ccnc2cc1OCCCN1CCN(C)CC1 [Example 29, 2-Chloro-N-(3-fluoro-4-{6-methoxy-7-[3-(4-methyl-piperazin-1-yl)-propoxy]-quinolin-4-yloxy}-phenyl)-benzenesulfonamide] | ≤ 12.5 | ≤ 12.5 | 12.5 to 50 |  |  |  | 
11 | ≤ 12.5 | ≤ 12.5 | ≤ 12.5 | ≤ 5 | 5 to 50 | 5 to 50 | 5 to 50 | ≤ 5 | ≤ 12.5 |  | COc1cc2c(Oc3c(Cl)cc(NS(=O)(=O)c4c(F)cccc4F)cc3Cl)ccnc2cc1OCCCN1CCN(C)CC1 [Example 88, N-(3,5-Dichloro-4-{6-methoxy-7-[3-(4-methyl-piperazin-1-yl)-propoxy]-quinolin-4-yloxy}-phenyl)-2,6-difluoro-benzenesulfonamide] | ≤ 12.5 | 12.5 to 50 | 12.5 to 50 |  |  |  | 
12 | ≤ 12.5 | ≤ 12.5 | ≤ 12.5 | 5 to 50 | ≤ 5 | ≤ 5 | ≤ 5 | ≤ 5 | ≤ 12.5 |  | COc1cc2c(Oc3ccc(NS(=O)(=O)c4ccc(Cl)s4)cc3F)ccnc2cc1OCCCN1CCCC(C)C1 (stereo not drawn) [Example 63, 5-Chloro-thiophene-2-sulfonic acid (3-fluoro-4-{6-methoxy-7-[3-(3-methyl-piperidin-1-yl)-propoxy]-quinolin-4-yloxy}-phenyl)-amide] | ≤ 12.5 | 12.5 to 50 | ≤ 12.5 |  |  |  | 
13 | ≤ 12.5 | ≤ 12.5 | ≤ 12.5 | ≤ 5 | ≤ 5 | ≤ 5 | 5 to 50 | ≤ 5 | ≤ 12.5 |  | COc1cc2c(Oc3ccc(NS(=O)(=O)c4c(Cl)cccc4Cl)cc3F)ccnc2cc1OCCCN1CCN(C)CC1 [Example 32, 2,6-Dichloro-N-(3-fluoro-4-{6-methoxy-7-[3-(4-methyl-piperazin-1-yl)-propoxy]-quinolin-4-yloxy}-phenyl)-benzenesulfonamide] | ≤ 12.5 | ≤ 12.5 | ≤ 12.5 |  |  |  | 
